Values joined by “and” are separate entries in the source; they are usually repeats but may differ in a detail not shown here. Equal values may be shown once.

Data set [1] addresses T1, OCT1 (Homo sapiens, UniProt O15245).
T1 sequence (O15245 1-554): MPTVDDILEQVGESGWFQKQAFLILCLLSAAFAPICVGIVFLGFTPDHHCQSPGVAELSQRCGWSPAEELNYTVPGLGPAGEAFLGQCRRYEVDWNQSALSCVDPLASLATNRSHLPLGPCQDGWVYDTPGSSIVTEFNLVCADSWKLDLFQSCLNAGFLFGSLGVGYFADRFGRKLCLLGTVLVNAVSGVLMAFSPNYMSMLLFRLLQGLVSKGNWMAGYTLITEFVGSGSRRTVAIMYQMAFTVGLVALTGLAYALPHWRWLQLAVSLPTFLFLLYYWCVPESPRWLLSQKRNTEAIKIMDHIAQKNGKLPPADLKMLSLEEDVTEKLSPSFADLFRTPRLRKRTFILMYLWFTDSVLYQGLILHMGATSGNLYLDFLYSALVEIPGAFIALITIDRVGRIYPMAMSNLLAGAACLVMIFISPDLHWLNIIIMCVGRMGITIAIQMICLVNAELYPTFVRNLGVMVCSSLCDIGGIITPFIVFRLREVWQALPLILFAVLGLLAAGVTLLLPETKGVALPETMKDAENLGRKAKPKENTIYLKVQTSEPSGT
Briefly: OCT1 activity: DAPI accumulation in HEK-OCT1 cells. The note with it: for effect on OCT1 activity: pyrethroid 100 μM, DAPI; for inhibition at 100 μM: human. On the procedure: (§1) The effects of pyrethroids on activity of ABC and SLC transporters were determined through measuring cellular accumulation or retention of fluorescent or radiolabeled reference substrates for transporters, in the presence or absence of reference inhibitors, as previously described. The nature of cells and reference substrates and inhibitors used for transport assays are summarized in S3 Table.
(§2) The nature of substrates and reference inhibitors and the incubation times with substrates, that varied according to the transporter, were selected in agreement with previous studies and are indicated in S3 Table. The total incubation volume with substrates was 200 μL/well. […] An aliquot of cell lysate (5 μL) was then taken for determining cellular protein content by the Bradford method.
(§3) Intracellular concentrations of reference substrates were initially expressed as fluorescence arbitrary units (for fluorescent dye substrates) or as moles (for radiolabeled substrates) and normalized to cellular protein content, determined by the Bradford method. They were finally used for calculating percentage of transporter activity, according to the following equations [41, 45]: %ABCtransporter activity=([Substrateref inh]-[Substratepyrethroid])×100/([Substrateref inh]-[Substratecontrol]) (1) %SLC transporter activity=([Substratepyrethroid]-[Substratref inh])×100/([Substratecontrol]-[Substrateref inh]) (2) with [Substratepyrethroid] = cellular concentration of reference substrate in the presence of pyrethroid, [Substrateref inh] = cellular concentration of reference substrate in the presence of reference inhibitor and [Substratecontrol] = cellular concentration of reference substrate in control cells not exposed to pyrethroid or reference inhibitor.
(§4) The initial tested concentration of pyrethroids was 100 μM. […] Such concentrations were calculated using GraphPad Prism software (GraphPad Software, La Jolla, CA), through nonlinear regression based on the four parameter logistic function using the following equations: […]

The target of a further data set is T2, OCT2 (Homo sapiens, UniProt O15244).
T2 sequence (O15244 1-555): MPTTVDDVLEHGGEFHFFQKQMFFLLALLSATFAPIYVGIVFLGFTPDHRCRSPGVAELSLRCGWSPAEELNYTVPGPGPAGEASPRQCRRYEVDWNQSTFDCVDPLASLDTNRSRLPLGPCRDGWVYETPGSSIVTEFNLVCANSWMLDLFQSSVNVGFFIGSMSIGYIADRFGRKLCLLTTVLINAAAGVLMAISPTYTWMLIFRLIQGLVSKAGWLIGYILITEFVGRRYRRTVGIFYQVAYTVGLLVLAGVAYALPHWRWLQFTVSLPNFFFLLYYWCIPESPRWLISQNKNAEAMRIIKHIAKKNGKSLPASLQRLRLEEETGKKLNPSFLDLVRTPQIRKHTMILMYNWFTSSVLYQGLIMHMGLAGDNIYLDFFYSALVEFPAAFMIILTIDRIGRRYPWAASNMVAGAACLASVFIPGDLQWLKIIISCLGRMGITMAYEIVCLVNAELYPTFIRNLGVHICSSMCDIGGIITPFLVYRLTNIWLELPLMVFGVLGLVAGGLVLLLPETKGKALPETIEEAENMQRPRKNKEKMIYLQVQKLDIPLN
Description: OCT2 activity: rhodamine 123 accumulation in HEK-OCT2 cells. The note with it: human. On the procedure:
as §1, §2, §3, §4

The target of data set [2] is T1, OCT1. Briefly: Trans-stimulation assay of TEA uptake in OCT1-transfected HEK293 cells. In kind it is cell-based. The conditions noted are these: pre-loading 60 min with 100 μM pyrethroid or 2 mM unlabeled TEA; HEK-OCT1 cells. On the procedure: Trans-stimulation assays were performed as previously described. Briefly, OCT1-transfected HEK293 cells were first preloaded with 2 mM unlabeled TEA or 100 μM pyrethroid for 60 min at 37°c in the transport assay medium described above. After washing twice with PBS, cells were next re-incubated in transport assay medium containing 29 μM [1-^14C]-TEA for 5 min at 37°C. After washing twice with PBS, cells were lysed in distilled water and intracellular accumulation of [1-^14C]-TEA was then determined by scintillation counting.
Intracellular accumulation of TEA was then determined by scintillation counting. […] After washing, cells were next re-incubated with 29 μM [1-^14C]-TEA for 5 min at 37°C. Intracellular accumulation of [1-^14C]-TEA was then determined by scintillation counting.

Details of data set [3]: method as in PMID 12708229. The note with it: human subjects environmentally exposed; ref [70]; cited from earlier work.
Data set [4] has as its target P-gp (Homo sapiens, UniProt P08183). Description: P-gp activity: rhodamine 123 accumulation in MCF7R cells. The conditions noted are these: pyrethroid 100 μM. On the procedure:
as §1
(§5) For accumulation assays (performed for all transporters, excepted BCRP), transporter-expressing cells usually cultured in 48-well plates were first incubated at 37°C with reference substrates in the absence (control) or presence of pyrethroids or reference inhibitors, in a well-defined transport assay medium, consisting of 136 mM NaCl, 5.3 mM KCl, 1.1mM KH2PO4, 0.8 mM MgSO4, 1.8 mM CaCl2, 10 mM HEPES, 11 mM D-glucose and adjusted to pH = 7.4 (excepted for MATE transporter assays, for which pH was set to 8.4). The nature of substrates and reference inhibitors and the incubation times with substrates, that varied according to the transporter, were selected in agreement with previous studies and are indicated in S3 Table. The total incubation volume with substrates was 200 μL/well. After washing twice in phosphate-buffered saline (PBS) (200 μL/well/washing), cells were lysed in distilled water (155 μL/well). An aliquot of cell lysate (5 μL) was then taken for determining cellular protein content by the Bradford method. The rest of lysate (150 μL/well) was used for measuring intracellular accumulation of reference substrates by scintillation counting or spectrofluorimetry using a SpectraMax Gemini SX spectrofluorometer (Molecular Devices, Sunnyvale, CA, USA) (excitation and emission wavelengths were 485 and 535 nm, respectively, for rhodamine 123 and fluorescein, and 355 and 460 nm, respectively, for DAPI).
as §3, §4

Data set [5] relates to P-gp. The note with it: ref [26], [27]; cited from earlier work.
A further data set has as its target T3, OAT1 (Homo sapiens, UniProt Q4U2R8).
T3 construct: host or cells: HEK293
T3 sequence (Q4U2R8 1-563): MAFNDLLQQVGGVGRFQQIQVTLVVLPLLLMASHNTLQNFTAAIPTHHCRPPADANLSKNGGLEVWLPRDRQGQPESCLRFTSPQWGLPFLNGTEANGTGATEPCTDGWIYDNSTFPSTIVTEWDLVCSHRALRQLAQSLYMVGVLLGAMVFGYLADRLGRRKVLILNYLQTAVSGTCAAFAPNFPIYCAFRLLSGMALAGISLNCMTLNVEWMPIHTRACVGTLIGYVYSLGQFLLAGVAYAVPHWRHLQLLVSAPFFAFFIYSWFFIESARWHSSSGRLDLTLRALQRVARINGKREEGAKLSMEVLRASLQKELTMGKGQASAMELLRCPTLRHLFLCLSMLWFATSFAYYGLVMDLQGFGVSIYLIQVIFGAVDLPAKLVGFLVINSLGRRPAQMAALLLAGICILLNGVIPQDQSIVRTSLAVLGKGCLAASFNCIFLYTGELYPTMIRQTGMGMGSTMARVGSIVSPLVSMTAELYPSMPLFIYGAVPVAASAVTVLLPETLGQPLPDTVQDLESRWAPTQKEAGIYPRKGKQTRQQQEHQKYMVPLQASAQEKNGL
Briefly: OAT1 activity: fluorescein accumulation in HEK-OAT1 cells. In kind it is cell-based. The note with it: human, pH 7.4; pyrethroid 100 μM; HEK-OAT1 cells, fluorescein.

Another data set addresses T4, OAT3 (Homo sapiens, UniProt Q8TCC7).
T4 sequence (Q8TCC7 1-542): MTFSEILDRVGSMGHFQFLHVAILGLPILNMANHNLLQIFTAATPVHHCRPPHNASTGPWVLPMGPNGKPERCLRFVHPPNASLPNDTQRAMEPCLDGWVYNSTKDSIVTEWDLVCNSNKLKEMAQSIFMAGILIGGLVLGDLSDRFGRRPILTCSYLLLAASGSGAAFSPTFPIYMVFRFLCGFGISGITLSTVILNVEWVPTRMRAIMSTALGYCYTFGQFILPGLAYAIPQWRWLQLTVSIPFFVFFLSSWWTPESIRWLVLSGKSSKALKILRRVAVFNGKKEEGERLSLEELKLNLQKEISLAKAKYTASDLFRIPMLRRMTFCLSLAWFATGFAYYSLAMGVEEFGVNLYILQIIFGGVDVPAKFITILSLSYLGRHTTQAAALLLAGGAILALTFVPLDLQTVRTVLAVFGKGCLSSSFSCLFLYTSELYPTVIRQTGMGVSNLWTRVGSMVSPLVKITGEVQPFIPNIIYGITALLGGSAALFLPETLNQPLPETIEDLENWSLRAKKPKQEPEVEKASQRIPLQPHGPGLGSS
Briefly: OAT3 activity: fluorescein accumulation in HEK-OAT3 cells. The note with it: human, pH 7.4. On the procedure: as §1, §5, §3, §4

[6] abbreviates: HEK-OCT2 cells, pH 7.4, probe rhodamine 123.

P-gp (Homo sapiens, UniProt P08183), sequence (P08183 whole entry): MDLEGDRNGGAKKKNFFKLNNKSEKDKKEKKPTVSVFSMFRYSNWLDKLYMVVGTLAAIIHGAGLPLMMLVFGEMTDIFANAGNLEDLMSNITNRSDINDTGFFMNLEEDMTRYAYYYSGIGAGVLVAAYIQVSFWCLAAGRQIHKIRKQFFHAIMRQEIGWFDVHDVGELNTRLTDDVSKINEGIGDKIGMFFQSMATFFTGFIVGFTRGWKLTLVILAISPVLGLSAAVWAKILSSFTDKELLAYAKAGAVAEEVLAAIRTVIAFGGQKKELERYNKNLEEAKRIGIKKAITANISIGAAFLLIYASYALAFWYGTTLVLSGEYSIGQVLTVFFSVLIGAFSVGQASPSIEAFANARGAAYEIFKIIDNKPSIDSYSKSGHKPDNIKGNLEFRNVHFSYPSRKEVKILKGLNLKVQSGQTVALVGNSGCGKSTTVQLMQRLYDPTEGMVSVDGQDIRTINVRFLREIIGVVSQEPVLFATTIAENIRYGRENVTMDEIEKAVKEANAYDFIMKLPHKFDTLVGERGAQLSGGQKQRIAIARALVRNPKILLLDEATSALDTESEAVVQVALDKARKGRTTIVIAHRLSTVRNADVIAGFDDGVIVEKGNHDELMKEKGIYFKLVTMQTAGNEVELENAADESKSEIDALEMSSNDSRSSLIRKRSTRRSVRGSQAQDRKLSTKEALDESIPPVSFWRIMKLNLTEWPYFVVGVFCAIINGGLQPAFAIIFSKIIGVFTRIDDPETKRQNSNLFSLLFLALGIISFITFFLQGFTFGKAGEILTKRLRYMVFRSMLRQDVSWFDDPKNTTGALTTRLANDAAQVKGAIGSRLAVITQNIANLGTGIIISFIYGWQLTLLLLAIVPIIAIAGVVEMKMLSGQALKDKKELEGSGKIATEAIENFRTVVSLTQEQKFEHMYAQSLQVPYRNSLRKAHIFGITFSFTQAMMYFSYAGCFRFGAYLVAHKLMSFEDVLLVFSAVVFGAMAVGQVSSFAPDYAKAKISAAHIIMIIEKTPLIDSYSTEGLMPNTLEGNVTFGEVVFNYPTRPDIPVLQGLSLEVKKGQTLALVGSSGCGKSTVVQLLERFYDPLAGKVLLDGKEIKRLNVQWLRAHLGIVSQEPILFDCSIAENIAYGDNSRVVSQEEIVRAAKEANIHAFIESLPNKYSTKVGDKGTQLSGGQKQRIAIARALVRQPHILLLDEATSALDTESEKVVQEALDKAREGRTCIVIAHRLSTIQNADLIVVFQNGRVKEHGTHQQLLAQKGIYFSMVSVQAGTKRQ
Description for OAT1: The effects of pyrethroids on activity of ABC and SLC transporters were determined through measuring cellular accumulation or retention of fluorescent or radiolabeled reference substrates for transporters, in the presence or absence of reference inhibitors, as previously described [41].
The total incubation volume with substrates was 200 μL/well. […] An aliquot of cell lysate (5 μL) was then taken for determining cellular protein content by the Bradford method [44].
Intracellular concentrations of reference substrates were initially expressed as fluorescence arbitrary units (for fluorescent dye substrates) or as moles (for radiolabeled substrates) and normalized to cellular protein content, determined by the Bradford method [44]. They were finally used for calculating percentage of transporter activity, according to the following equations [41, 45]: %ABCtransporter activity=([Substrateref inh]-[Substratepyrethroid])×100/([Substrateref inh]-[Substratecontrol]) (1) %SLC transporter activity=([Substratepyrethroid]-[Substratref inh])×100/([Substratecontrol]-[Substrateref inh]) (2) with [Substratepyrethroid] = cellular concentration of reference substrate in the presence of pyrethroid, [Substrateref inh] = cellular concentration of reference substrate in the presence of reference inhibitor and [Substratecontrol] = cellular concentration of reference substrate in control cells not exposed to pyrethroid or reference inhibitor.

`Cc1c(COC(=O)[C@@H]2[C@H](/C=C(\Cl)C(F)(F)F)C2(C)C)cccc1-c1ccccc1` (racemic) [bifenthrin]: on OCT1 [1], the “effect on OCT1 activity” value is recorded as “failed to significantly alter”. With `Cc1c(F)c(F)c(COC(=O)[C@@H]2[C@H](/C=C(\Cl)C(F)(F)F)C2(C)C)c(F)c1F` (racemic) [tefluthrin], the inhibition at 100 μM on OCT1 [1] (pH 7.4) is 30.1 to 48.8%; against OCT2 (pH 7.4), roughly 25%. `CC1(C)[C@H](C(=O)O[C@H](C#N)c2cccc(Oc3ccccc3)c2)[C@@H]1/C=C(\Cl)C(F)(F)F` (racemic) [λ-cyhalothrin] had an inhibition at 100 μM at OCT1 [1] (pH 7.4) of 30.1 to 48.8%. Consider `CC[N+](CC)(CC)CC` [TEA, tetra-ethylammonium bromide, reference compound], for which the “effect of pre-loading on radiolabeled TEA uptake (trans-stimulation assay)” value on OCT1 [2] is “trans-stimulation”. With `CC1(C)[C@H](C(=O)OCc2cccc(Oc3ccccc3)c2)[C@@H]1C=C(Cl)Cl` [cis-permethrin], the “effect on OCT1 activity” value on OCT1 [1] is on record as “failed to significantly alter”.

For the molecule `CC1(C)C(C=C(Cl)Cl)C1C(=O)OC(C#N)c1ccc(F)c(Oc2ccccc2)c1` (centres unmarked) [cyfluthrin], the blood concentration in data set [3] is < 5 μg/L and < 12.8 nM.

With `CC1(C)C(C=C(Cl)Cl)C1C(=O)OC(C#N)c1cccc(Oc2ccccc2)c1` (centres unmarked) [cypermethrin], the blood concentration in data set [3] was < 5 μg/L and < 12.8 nM. Also, the “effect on P-gp activity” value on P-gp [4] is on record as “did not alter”.

Regarding `CC1(C)C(C(=O)OC(C#N)c2cccc(Oc3ccccc3)c2)C1(C)C` (centres unmarked) [fenpropathrin], the inhibition at 100 μM against OCT1 [1] (pH 7.4) lay in the range of 30.1 to 48.8%.

As to `CC(C)[C@H](Nc1ccc(C(F)(F)F)cc1Cl)C(=O)OC(C#N)c1cccc(Oc2ccccc2)c1` (some centres unmarked) [fluvalinate], in the data set on P-gp [5], the “effect on P-gp activity or ATPase activity” value is on record as “inhibit”. For the same molecule, the “effect on P-gp activity” value at P-gp [4] is given as “did not alter”. For the molecule `CC1(C)[C@H](C=C(Cl)Cl)[C@H]1C(=O)OCc1cccc(Oc2ccccc2)c1` [trans-permethrin], the inhibition at 100 μM on OCT1 [1] (pH 7.4) is 30.1 to 48.8%; against OCT2 (setting [6]), roughly 25%.

`CC1(C)[C@H](C=C(Cl)Cl)[C@H]1C(=O)O[C@@H](C#N)c1cccc(Oc2ccccc2)c1` [β-cypermethrin]: the inhibition at 100 μM against OCT1 [1] (HEK-OCT1 cells, pH 7.4, probe DAPI) is 30.1%; against OCT2 (setting [6]) it was roughly 25%. On to `CC(C)[C@@H](Nc1ccc(C(F)(F)F)cc1Cl)C(=O)OC(C#N)c1cccc(Oc2ccccc2)c1` (some centres unmarked) [τ-fluvalinate], for which the inhibition at 100 μM on OAT1 is 42.8%; at OCT2 (pH 7.4), roughly 25%; against OAT3, 15.6%. On OCT1 [1], the “effect on OCT1 activity” value is “failed to significantly alter”.

The inhibition is the change of the read-out against control, counted positive when it falls. A higher inhibition goes with a response far below the control.

(Values after paper PMC5242521 (PLoS ONE, 2017).)
